Earlier results, collected in patent US4127541A, “Novel decapeptides, intermediates therefor, and compositions and methods employing said decapeptides” (priority 1977, dated 1978).

Key:
[1] = test system: brain opiate receptor sites
[2] = injected directly into the brain of the rat

H-Tyr-Gly-Gly-Phe-Met-OH [methionine enkephalin]
binding to partially purified brain opiate receptor sites [1]: binds stereo-specifically | analgesic activity [2]: weak analgesic agent of short duration
